# Assay results from patent US20080113868A1, “Colorant compositions and their use as pH sensitive color indicators” (priority 2006, published 2008).
# Tests used:
# Assay type in all cases: physicochemical
# [1] = Test for pH effect on de-coloration: absorbance in aqueous pH buffer solutions
# Procedure: Several 1% solutions of colorant were prepared and added to standard aqueous pH buffer solutions available from VWR and Aldrich to give absorbance of less than one. The colorant solution was tested for absorbance using a DU 7 Spectrophotometer.
# In general, the pKa value represents the pH value when approximately half of the colorant is converted to its colorless form. […] “Comparative” is indicated as “Comp.”
# [2] = Lightfastness test (AATCC Test Method 16-1993 Option E), effect of ultraviolet light
# Procedure: In order to determine the effect of ultraviolet light on the de-coloration rate over time of the colorant compositions of the present invention, the colorants were subjected to a lightfastness test. The test was performed according to AATCC Test Method 16-1993 Option E. Comparative Colorants 1-4 were also tested.
# The results are provided as DE CMC values and represent the color difference from the standard or control, which was white paper. […] This value for each of the time intervals is then divided by the initial DE CMC value and multiplied by 100.
# [3] = Cellulose powder staining test; conditions: on cellulose powder after stirring with deionized water for one minute
# Procedure: Colorant 8 was diluted in water to an absorbtivity value of 33.5 A/g/L; then 0.73 parts was dissolved in 5 parts of methanol to give a stock solution A. One part of this solution was mixed with 10 parts of cellulose microcrystalline powder available from Aldrich. The colored powder was dried in a beaker in a 100° C. oven over 20 minutes with occasional stirring. The dry powder was cooled and stirred with 50 parts deionized water for one minute. The slurry was filtered and the filtrate was collected. The percent retention of color on the cellulose powder was calculated from the ratio of the absorbance of one part stock solution A diluted with 50 parts water and the absorbance of the filtrate solution.
# The same procedure was used with a stock solution of 0.73 parts dodecenyl succinic ester acid colorant, Inventive Colorant 9, dissolved in 5 ml of methanol. The percent retention of color was determined in the same manner.
# [4] = pH value when approximately half of the colorant is converted to its colorless form
# [5] = ultraviolet light exposure time 0 hours
# [6] = ultraviolet light exposure time 0 hours (initial)
# [7] = ultraviolet light exposure time 2 hours
# [8] = ultraviolet light exposure time 5 hours
# [9] = ultraviolet light exposure time 10 hours
# [10] = ultraviolet light exposure time 20 hours
Compound,Absorbance ([1]; aqueous buffer pH 2),Absorbance ([1]; aqueous buffer pH 4),Absorbance ([1]; aqueous buffer pH 6),Absorbance ([1]; aqueous buffer pH 7),Absorbance ([1]; aqueous buffer pH 8),Absorbance ([1]; aqueous buffer pH 9),Absorbance ([1]; aqueous buffer pH 10),"pKa Value [1, 4]","Percent Color Fade [2, 5] [%]","DE CMC value (color difference from white paper) [2, 6]","DE CMC value (color difference from white paper) [2, 7]","Percent Color Fade [2, 7] [%]","DE CMC value (color difference from white paper) [2, 8]","Percent Color Fade [2, 8] [%]","DE CMC value (color difference from white paper) [2, 9]","Percent Color Fade [2, 9] [%]","DE CMC value (color difference from white paper) [2, 10]","Percent Color Fade [2, 10] [%]","pKa [1, 4]",Percent Color Retention [3] [%]
"3,4-methylenedioxyphenyl-methyliumylidene-di(4,1-phenyleneamino)N,N-polyethyleneoxy(10), Chloride [Colorant 3]",0.9589,0.955,0.9609,0.7309,0.2375,0.0424,0.0199,7.5,0,75.15,36.95,50.83,34.25,54.42,33.39,55.57,29.45,60.81,,
"CN(C)c1ccc(C(=C2C=CC(=[N+](C)C)C=C2)c2ccccc2)cc1 [Comp. Colorant 4, Basic Green 4, reference compound]",0.319,0.3843,0.4546,0.2678,0.0538,0.0361,0.0111,,0,44.71,14.37,67.86,13.05,70.81,9.65,78.42,5.67,87.32,7,
"3-Methoxy-4-Polyethyleneoxide(6)phenyl-methyliumylidene-di(4,1-phenyleneamino)N,N-polyethyleneoxy(10), Chloride [Colorant 5]",0.8266,0.8269,0.7735,0.5674,0.1928,0.0527,0.0312,7.3,0,38.47,32.17,16.38,31.67,17.68,29.83,22.46,7.15,81.42,,
"Phenyl-methyliumylidene-di(4,1-phenyleneamino)N,N-polyethyleneoxy(10), Chloride [Colorant 1]",0.95,0.95,0.82,0.35,0.05,0.005,0.005,6.6,,,,,,,,,,,,
"Phenyl-methyliumylidene-di(4,1-phenyleneamino)N,N-polyethyleneoxy(5), Chloride [Colorant 8]",,,,,,,,,0,51.09,39.83,22.04,38.01,25.60,12.29,75.94,8.95,82.48,,56
"Phenyl-methyliumylidene-di(4,1-phenyleneamino)N,N-polyethyleneoxy(5)-tetrakisDodecenylsuccinate acid, inner salt [Colorant 9]",,,,,,,,,,,,,,,,,,,,92.6
"4-Methylphenyl-methyliumylidene-di(4,1-phenyleneamino)N,N-polyethyleneoxy(10), Chloride [Colorant 4]",0.8881,0.8878,0.8304,0.569,0.154,0.0244,0.0079,7.3,0,50.95,41.31,18.92,38.99,23.47,37.19,27.01,30.97,39.22,,
"CCN(Cc1cccc(S(=O)(=O)[O-])c1)c1ccc(C(=C2C=CC(=[N+](CC)Cc3cccc(S(=O)(=O)[O-])c3)C=C2)c2ccccc2S(=O)(=O)[O-])cc1.[Na+].[Na+] [Comp. Colorant 3, Acid Blue 9, reference compound]",0.764,0.7699,0.7253,,0.7829,,0.804,>10,0,58.19,52.89,9.11,49.83,14.37,46.51,20.07,40.21,30.90,,
